We go through four compounds from patent US20040142960A1 (priority 2001, published 2004).

Structures are written as SMILES. Structures can show the parent of a compound that is named as a salt.

For one assay, the system named is bone marrow cells. The note with it: concentrations at which the adrenergic antagonists are effective; cited from earlier work.
Assay [1] has as its system HSV-1. The note with it: cited from earlier work.
The test system of the next assay is Langerhans cells. The note with it: administered intraperitoneally; cited from earlier work.
Assay [2] in a line: antibody response in treated subjects. The class given is in vivo.
Assay [3] relates to HSV-1. Nature of the assay: systemic or local treatment, HSV-1 reactivation from latency. The class given is in vivo.

With `Cc1ccc(N(CC2=NCCN2)c2cccc(O)c2)cc1` [phentolamine], the “relative order of potency in counteracting norepinephrine” value in the assay on bone marrow cells is given as “prazosin>phentolamine>yohimbine”.

Take `COc1cc2nc(N3CCN(C(=O)c4ccco4)CC3)nc(N)c2cc1OC` [prazosin]: the “relative order of potency in counteracting norepinephrine” value with bone marrow cells was “prazosin>phentolamine>yohimbine”.

For the compound `COC(=O)[C@@H]1[C@H]2C[C@H]3c4[nH]c5ccccc5c4CCN3C[C@@H]2CC[C@@H]1O` [yohimbine hydrochloride], the “activity on HSV-1” value with HSV-1 [1] is “inactive”.

On to `COC(=O)[C@@H]1[C@H]2C[C@H]3c4[nH]c5ccccc5c4CCN3C[C@@H]2CC[C@@H]1O` [yohimbine, (16α,17α)-hydroxyyohimban-16-carboxylic acid methyl ester], for which, in the assay with Langerhans cells, the Langerhans cells migration result is “enhances the Langheran's cells migration”. Also, in assay [2], the antibody response entry was “stimulates and enhances the antibody response”. Further, the “inflammation during HSV-1 reactivation” value with HSV-1 [3] (in vivo) was “reduced inflammation”. Also, in the assay on HSV-1 [3] (systemic or local treatment), the HSV-1 reactivation frequency result was “reduces the HSV-1 reactivation frequency” and the local norepinephrine concentration result is on record as “local increase of norepinephrine concentration”.
